We go through one compound from the NIST ThermoML archive (doi:10.1021/acs.jced.8b01144).

± gives the expanded uncertainty stated by the source.

For this data set the following is noted: Crystal; DSC.

For the compound `NC(=O)c1ccc(N)cc1` [4-aminobenzamide], the Triple point temperature came out at 453.4 ± 1.2 K.
